Consider two compounds from patent US9797913B2, “Alzheimer's disease-specific alterations of the ERK1/ERK2 phosphorylation ratio-alzheimer's disease-specific molecular biomarkers (ADSMB)” (BLANCHETTE ROCKEFELLER NEUROSCIENCES INSTITUTE, priority 2005, dated 2017).

Entries after “also recorded” stand apart in the source; their conditions may differ.

Test [1] relates to Erk1/Erk2 phosphorylation ratio in Aβ(1-42)-treated human fibroblasts. Description: Bryostatin reversal of the Aβ(1-42)-induced Alzheimer's phenotype (ADSMB) in control fibroblasts. The format is cell-based. Particulars: AC cell lines, 1.0 μM Aβ(1-42) 24 hrs followed by 0.1 nM bryostatin 20 min. As to the method:
Preparation of Aβ(1-42) solution: Initially 1 mg of Aβ(1-42) was dissolved in hexa-fluoroisopropanol (Sigma, St. Louis, Mo.) at a concentration of 3 mM and separated into aliquots in sterile microcentrifuge tubes. Hexa-fluoroisopropanol was removed under vacuum and lyophilized. The Aβ(1-42) films were stored at −20° C. under dry conditions until use. 5 mM Aβ(1-42) stock solution was prepared from the stored Aβ(1-42) in DMSO just before the experiment. 1.0 μM stock solution was prepared in DMEM medium (supplemented with 10% serum and penicillin/streptomycin) by dissolving Aβ(1-42) from a DSMO stock solution. […] Total Erk1, Erk2 and the phosphorylated forms of Erk1 and Erk2 (p-Erk1, p-Erk2) were determined using specific antibodies: anti-regular Erk1/2 and anti-phospho ERK1/2. […]
Signals of the Western blot protein bands were scanned with a Fuji LAS-1000 Plus scanner. The intensity of Erk1, Erk2, p-Erk1 and p-Erk2 were measured from scanned protein bands by a specially designed software developed by Dr. Nelson in our Institute (Blanchette Rockefeller Neurosciences Institute, Rockville, Md.). The intensity was measured by strip densitometry. The protein bands were selected by strip and each pixel density was calculated after background subtraction by the software. The ratios of p-Erk1/p-Erk2 were calculated from sample (BK+) and control (BK−) respectively. […]

Test [2] deals with PKC. As to conditions: human fibroblasts; cited from earlier work.
Test [3] has as its system Aβ(1-42) levels in the brains. As to conditions: transgenic mice with human AD genes; cited from earlier work.
For test [4], the system named is AD-transgenic mice. As to conditions: chronic exposure; cited from earlier work.
Test [5] deals with Erk1/Erk2 phosphorylation ratio in non-AD control (AC) cells. Description: Aβ(1-42) induction of the Alzheimer's phenotype (ADSMB, bradykinin-induced p-Erk1/p-Erk2 ratio) in control fibroblasts. The format is cell-based, human. Particulars: for ADSMB: then 10 nM bradykinin 10 min. As for the experimental part: Preparation of Aβ(1-42) solution: Initially 1 mg of Aβ(1-42) was dissolved in hexa-fluoroisopropanol (Sigma, St. Louis, Mo.) at a concentration of 3 mM and separated into aliquots in sterile microcentrifuge tubes. Hexa-fluoroisopropanol was removed under vacuum and lyophilized. The Aβ(1-42) films were stored at −20° C. under dry conditions until use. 5 mM Aβ(1-42) stock solution was prepared from the stored Aβ(1-42) in DMSO just before the experiment. 1.0 μM stock solution was prepared in DMEM medium (supplemented with 10% serum and penicillin/streptomycin) by dissolving Aβ(1-42) from a DSMO stock solution. DMEM medium containing 1.0 μM Aβ(1-42) was added to non-AD control (AC) cells at 90-100% confluence stage in 25 mL cultured flask and kept at cell culture incubator (at 37° C. with 5% CO2) for 24 hrs. Cells were ‘starved’ in serum free medium (DMEM) for 16 hours. 10 nM bradykinin (in DMSO) solution was prepared in DMEM medium with 10% serum. 7 mL of 10 nM BK solution were added to the 25 mL cultured flask and incubated at 37° C. for 10 min. For the controls, the same amount of DMSO was added in DMEM medium with 10% serum. 7 mL of this medium with DMSO (<0.01%) were added to the 25 mL cultured flask and incubated at 37° C. for 10 min. After washing four times with cold (4° C.) 1×PBS, flasks were kept in a dry ice/ethanol mixture for 15 min. Flasks were removed from the dry ice/ethanol mixture and then 100 μL of lysis buffer (10 mM Tris, pH 7.4, 150 mM NaCl, 1 mM EDTA, 1 mM EGTA, 0.5% NP-40, 1% Triton X-100, 1% protease inhibitor cocktail, 1% ser/thr/tyrosine phosphatase inhibitor cocktails) was added into each flask. Flasks were kept on an end-to end shaker in a cold room (4° C.) for 30 min and cells were collected from each flask with a cell scraper. Cells were sonicated and then centrifuged at 14000 rpm for 15 min, and the supernatant was used for Western blotting after total protein assay. Total Erk1, Erk2 and the phosphorylated forms of Erk1 and Erk2 (p-Erk1, p-Erk2) were determined using specific antibodies: anti-regular Erk1/2 and anti-phospho ERK1/2. At least three bradykinin treated flasks (BK+) and correspondingly three control flasks (BK−) were included for each cell line to minimize errors in measurement.
Signals of the Western blot protein bands were scanned with a Fuji LAS-1000 Plus scanner. The intensity of Erk1, Erk2, p-Erk1 and p-Erk2 were measured from scanned protein bands by a specially designed software developed by Dr. Nelson in our Institute (Blanchette Rockefeller Neurosciences Institute, Rockville, Md.). The intensity was measured by strip densitometry. The protein bands were selected by strip and each pixel density was calculated after background subtraction by the software. The ratios of p-Erk1/p-Erk2 were calculated from sample (BK+) and control (BK−) respectively. The following formula was used to distinguish between AD and non-AD cases: ADSMB=[p-Erk1/p-Erk2]^BK+−[p-Erk1/p-Erk2]^BK− ADSMB=Alzheimer's Disease-Specific Molecular Biomarker

In the case of `CCC/C=C/C=C/C(=O)O[C@H]1/C(=C/C(=O)OC)C[C@H]2C[C@H]([C@@H](C)O)OC(=O)C[C@H](O)C[C@@H]3C[C@H](OC(C)=O)C(C)(C)[C@](O)(C[C@@H]4C/C(=C/C(=O)OC)C[C@H](/C=C/C(C)(C)[C@]1(O)O2)O4)O3` [Bryostatin], the “ADSMB after Aβ(1-42) then bryostatin treatment (in words)” value is “entirely reversed” in test [1]; “small and negative” in test [1] (listed as bryostatin). Further, the PKC activation entry in test [2] was “enhance PKC activation”. Besides, the “Aβ(1-42) levels in the brains” value in test [3] is recorded as “reduce Aβ(1-42) levels”. The survival entry in test [4] is “greatly increased survival”.
Turning to Beta amyloid (1-42) [Aβ], the “ADSMB Average ± SE” value in test [5] (average of AC cell lines, 1.0 μM Aβ(1-42) 24 hrs, P < 0.001 vs control) was 0.13 ± 0.01. The ADSMB in test [5] (cell line AG06959, 1.0 μM Aβ(1-42) 24 hrs) turned out to be 0.13; in test [5] (cell line AG07732, 1.0 μM Aβ(1-42) 24 hrs), 0.12; in test [5] (cell line AG09977, 1.0 μM Aβ(1-42) 24 hrs), 0.13; in test [5] (cell line AG11363, 1.0 μM Aβ(1-42) 24 hrs), 0.16. In addition, the “ADSMB after Aβ(1-42) treatment (in words)” value in test [5] (control (non-AD) cell lines, 1.0 μM Aβ(1-42), 24 hours) was “abnormal positively valued ADSMB phenotype; also recorded: higher and positive”.
